Assay results: ChEMBL document CHEMBL1201862, “PubChem BioAssay data set” (2004)
Blank lines part the entries; values can stand above or below the molecule they belong to. Calls of active or inactive are those of the source.

How the values were obtained:
[1] = target: Tyrosine-protein phosphatase non-receptor type 5 (Homo sapiens, UniProt P54829); assay: PTPN5 enzyme inhibition – biochemical, fluorescence intensity, uHTS hits, confirmation (AID 602372); type: functional; settings: read-out: IC50_Mean
Tyrosine-protein phosphatase non-receptor type 5, sequence (P54829 whole entry): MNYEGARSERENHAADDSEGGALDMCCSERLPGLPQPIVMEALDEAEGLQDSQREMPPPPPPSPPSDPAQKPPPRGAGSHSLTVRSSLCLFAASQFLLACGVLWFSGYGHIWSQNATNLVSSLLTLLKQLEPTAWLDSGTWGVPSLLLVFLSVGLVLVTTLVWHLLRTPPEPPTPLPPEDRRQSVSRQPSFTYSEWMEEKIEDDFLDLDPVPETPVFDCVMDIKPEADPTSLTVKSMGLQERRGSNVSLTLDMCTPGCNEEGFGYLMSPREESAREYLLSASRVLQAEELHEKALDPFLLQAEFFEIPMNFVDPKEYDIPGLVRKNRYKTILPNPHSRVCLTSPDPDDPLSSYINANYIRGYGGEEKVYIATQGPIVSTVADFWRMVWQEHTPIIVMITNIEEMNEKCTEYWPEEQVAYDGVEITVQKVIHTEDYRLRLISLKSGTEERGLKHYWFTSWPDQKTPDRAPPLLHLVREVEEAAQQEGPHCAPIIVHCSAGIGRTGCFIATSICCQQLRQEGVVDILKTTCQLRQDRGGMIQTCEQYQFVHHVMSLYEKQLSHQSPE

[2] = target: T1, Low molecular weight phosphotyrosine protein phosphatase (Homo sapiens, UniProt P24666); type: functional; settings: read-out: IC50_Mean
T1 sequence (P24666 whole entry): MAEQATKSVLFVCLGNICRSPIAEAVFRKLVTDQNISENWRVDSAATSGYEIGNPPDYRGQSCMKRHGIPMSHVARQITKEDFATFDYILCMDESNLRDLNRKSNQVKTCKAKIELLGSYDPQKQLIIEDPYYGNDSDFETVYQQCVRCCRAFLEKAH

[3] = target: Dual specificity protein phosphatase 3 (Homo sapiens, UniProt P51452); assay: VHR phosphatase inhibition, dose response, selectivity assay for STEP inhibitor project, biochemical (AID 602374); type: functional; settings: read-out: IC50_Mean
Dual specificity protein phosphatase 3, sequence (P51452 whole entry): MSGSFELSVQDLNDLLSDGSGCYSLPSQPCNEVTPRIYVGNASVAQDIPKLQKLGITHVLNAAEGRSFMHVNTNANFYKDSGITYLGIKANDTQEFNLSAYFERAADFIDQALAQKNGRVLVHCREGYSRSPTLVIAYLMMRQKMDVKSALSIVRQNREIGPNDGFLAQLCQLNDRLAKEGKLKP

[4] = target: T1, Low molecular weight phosphotyrosine protein phosphatase; type: functional; settings: read-out: IC50_Mean; remark: listed apart in the source
[5] = target: Tyrosine-protein phosphatase non-receptor type 11 (Homo sapiens, UniProt Q06124); assay: PTPN11 enzyme inhibitors – biochemical, selectivity assay for STEP inhibitor project, dose response (AID 602367); type: functional; settings: read-out: IC50_Mean
[6] = target: T2, Tyrosine-protein phosphatase non-receptor type 22 (Homo sapiens, UniProt Q9Y2R2); assay: lymphoid phosphatase LYP inhibitors – biochemical, selectivity assay for STEP inhibitor project, dose response (AID 624241); type: functional
T2 sequence (Q9Y2R2 whole entry): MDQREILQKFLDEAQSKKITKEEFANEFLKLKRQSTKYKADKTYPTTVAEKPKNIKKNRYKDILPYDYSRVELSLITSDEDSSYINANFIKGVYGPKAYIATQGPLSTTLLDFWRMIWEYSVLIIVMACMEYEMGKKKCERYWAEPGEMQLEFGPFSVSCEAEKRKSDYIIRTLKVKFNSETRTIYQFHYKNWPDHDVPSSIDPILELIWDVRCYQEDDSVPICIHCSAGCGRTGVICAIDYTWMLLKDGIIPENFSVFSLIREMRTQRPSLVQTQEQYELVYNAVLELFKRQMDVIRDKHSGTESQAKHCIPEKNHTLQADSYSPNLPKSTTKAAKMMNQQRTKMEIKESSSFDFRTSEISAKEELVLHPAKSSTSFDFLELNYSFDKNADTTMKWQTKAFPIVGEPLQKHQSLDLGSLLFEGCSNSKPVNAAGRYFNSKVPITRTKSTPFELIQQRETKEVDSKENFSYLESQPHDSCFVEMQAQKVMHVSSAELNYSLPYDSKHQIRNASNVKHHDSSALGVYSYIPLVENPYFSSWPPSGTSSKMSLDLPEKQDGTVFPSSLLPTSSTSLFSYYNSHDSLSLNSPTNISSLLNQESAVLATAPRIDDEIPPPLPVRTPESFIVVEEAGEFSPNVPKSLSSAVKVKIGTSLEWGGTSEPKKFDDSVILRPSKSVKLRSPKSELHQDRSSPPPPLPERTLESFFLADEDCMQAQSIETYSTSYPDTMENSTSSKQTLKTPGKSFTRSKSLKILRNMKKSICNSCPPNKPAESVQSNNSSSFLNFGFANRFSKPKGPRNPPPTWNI

[7] = test system: HeLa; assay: viability loss in HeLa cells – cell-based, ATP luminescence, cherry-pick samples, cytotoxicity control, dose response (AID 687004); type: functional; settings: Homo sapiens
[8] = test system: Cryptococcus neoformans; assay: Cryptococcus growth inhibition by alamar blue – cell lysis, cherry-picks, replicate tests, mechanism study for C. neoformans antifungal project, dose response (AID 686999); type: functional, organism-based
[9] = reduced cellular PGC1a acetyl-lysine signal – cell-based, cherry-picked samples, dose response (AID 720514); type: functional;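 also: potency may reflect raised or lowered acetylation signal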
[10] = target: Paired box protein Pax-8 (Homo sapiens, UniProt Q06710); assay: PAX8 transcriptional activity inhibition in RMG-I – RMG-I cells, luciferase, cherry-pick, dose response (AID 687027); type: functional, cell-based;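 also: luciferase reporter driven by Pax8 target thyroperoxidase promoter measured by SteadyGlo luminescence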
Paired box protein Pax-8, sequence (Q06710 whole entry): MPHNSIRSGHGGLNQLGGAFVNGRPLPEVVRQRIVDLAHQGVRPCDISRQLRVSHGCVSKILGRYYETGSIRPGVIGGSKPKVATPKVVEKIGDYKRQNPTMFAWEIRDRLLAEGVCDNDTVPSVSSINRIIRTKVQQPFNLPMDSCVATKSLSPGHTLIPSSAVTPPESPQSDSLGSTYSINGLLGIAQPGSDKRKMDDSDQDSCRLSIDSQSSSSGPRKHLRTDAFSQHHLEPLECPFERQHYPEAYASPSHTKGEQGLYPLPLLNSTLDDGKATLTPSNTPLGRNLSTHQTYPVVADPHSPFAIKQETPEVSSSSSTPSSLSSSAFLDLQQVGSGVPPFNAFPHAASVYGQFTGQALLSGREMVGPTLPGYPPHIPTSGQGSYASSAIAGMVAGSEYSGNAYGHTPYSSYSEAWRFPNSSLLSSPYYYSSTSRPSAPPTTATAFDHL

[11] = OVCAR-3 cell viability loss – plate reader, dry powder samples, PAX8 inhibitor project, dose response (AID 743044); type: functional, cell-based
[12] = P. falciparum Dd2 growth inhibitors, dose response, SYBR Green, cherry-picked samples (AID 1159567); type: functional, cell-based
[13] = toxicity to human hepatoma HepG2 cells – cell-based, cherry-picked samples, cytotoxicity control, dose response (AID 1159577); type: functional
[14] = IGROV1 cell killing – plate reader, dry powder samples, PAX8 inhibitor project, dose response (AID 743043); type: functional, cell-based; settings: IGROV-1
[15] = LMP1-induced NF-kB luciferase signal inhibition – cell-based, EBV LMP1, dry powder, set 2, dose response (AID 624361); type: functional
[16] = TNFa-induced NF-kB reporter signal decrease – HEK293 LMP1 reporter cells, dry powder, set 2, selectivity assay for EBV LMP1 NF-kB inhibitor project, dose response (AID 624369); type: functional
[17] = T. cruzi growth inhibition in host cells, dose response, cell-based, plate reader, dry powder, set 2 (AID 652275); type: functional
[18] = target: T3, High affinity choline transporter 1 (Homo sapiens, UniProt Q9GZV3); assay: inhibition of SLC5A7-mediated choline transport – cell-based, HEK-293 hCHT, [3H]-choline uptake, dose response (AID 652177); type: functional
T3 sequence (Q9GZV3 whole entry): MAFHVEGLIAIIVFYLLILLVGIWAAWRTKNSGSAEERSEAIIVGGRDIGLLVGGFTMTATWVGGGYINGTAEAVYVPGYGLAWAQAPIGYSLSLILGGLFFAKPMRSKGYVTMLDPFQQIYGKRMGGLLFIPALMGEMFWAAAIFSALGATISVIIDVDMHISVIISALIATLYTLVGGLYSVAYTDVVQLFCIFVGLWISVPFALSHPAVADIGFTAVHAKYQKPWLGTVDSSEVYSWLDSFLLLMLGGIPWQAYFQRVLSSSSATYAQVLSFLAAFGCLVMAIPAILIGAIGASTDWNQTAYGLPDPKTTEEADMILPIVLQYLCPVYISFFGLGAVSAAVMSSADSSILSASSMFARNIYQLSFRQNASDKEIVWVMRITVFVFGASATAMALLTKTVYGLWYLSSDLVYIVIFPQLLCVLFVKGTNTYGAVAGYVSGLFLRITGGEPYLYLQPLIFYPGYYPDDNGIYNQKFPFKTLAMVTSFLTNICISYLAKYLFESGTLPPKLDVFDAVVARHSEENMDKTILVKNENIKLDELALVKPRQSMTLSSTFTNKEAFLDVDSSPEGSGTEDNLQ

[19] = target: T4, DNA repair protein RAD52 homolog (Homo sapiens, UniProt P43351); type: functional, biochemical
T4 sequence (P43351 whole entry): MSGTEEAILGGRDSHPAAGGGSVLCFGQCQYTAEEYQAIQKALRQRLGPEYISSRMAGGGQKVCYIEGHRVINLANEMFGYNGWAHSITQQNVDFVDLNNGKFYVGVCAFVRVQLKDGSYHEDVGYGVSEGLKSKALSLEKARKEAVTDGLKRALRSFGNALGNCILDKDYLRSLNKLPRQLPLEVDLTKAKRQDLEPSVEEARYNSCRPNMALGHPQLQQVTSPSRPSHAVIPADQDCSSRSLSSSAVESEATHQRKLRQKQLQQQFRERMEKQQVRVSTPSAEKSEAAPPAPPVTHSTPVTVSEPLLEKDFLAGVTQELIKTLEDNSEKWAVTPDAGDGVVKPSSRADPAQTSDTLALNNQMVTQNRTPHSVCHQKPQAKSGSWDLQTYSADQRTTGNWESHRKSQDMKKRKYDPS

[20] = viability loss in HepG2 hepatoma cells – cell-based, ATP luminescence, cherry-pick, activator set 2, cytotoxicity control, dose response (AID 1053143); type: functional

IC50 [1]: 12.8 µM (active)
IC50 [2]: 14.2 µM (active)
IC50 [3]: 2.38 µM (active)
IC50 [4]: 15.9 µM (active)
IC50 [5]: 2.01 µM (active)
IC50 [6]: > 100 µM (inactive)
Compound: C/C(=N\NC(=O)c1ccccc1O)c1ccc(NC(=O)Cc2ccccc2)cc1

Compound: COC(=O)C1=C(C)N(Cc2ccc(F)cc2)C(=S)NC1c1ccc(F)cc1 (stereo not given)
AC50 [7]: > 52 µM (inactive)
AC50 [8]: 56.1 µM (active)

Compound: O=C(Nc1ccc(C(F)(F)F)cc1)N1C[C@@H]2N[C@H](C1)[C@@H]2c1ccc(/C=C/c2ccccc2)cc1
AC50 [9]: 1.57 µM (active)
AC50 [10]: 21.7 µM (active)
AC50 [11]: 36.8 µM (active)
AC50 [12]: 2.93 µM (active)
AC50 [13]: 2.56 µM (active)
AC50 [14]: 50.8 µM (active)

Compound: O=C(C[C@H]1CC[C@@H]2[C@H](COC[C@H](O)CN2Cc2ccc(Oc3ccccc3)cc2)O1)N1CCc2ccccc2C1
AbsAC35 [15]: 66.11 µM
AbsAC35 [16]: 121.3 µM

Compound: CN(C)CC#Cc1cccc(-c2nc(C(=O)NCc3ccc4c(c3)OCO4)cc3c2[C@H](CCO)N([S+]([O-])C(C)(C)C)C3)c1 (stereo not given in full)
AC50 [17]: 1.38 µM (active)

IC50 [18]: 77.3 µM (inactive)
Compound: COc1ccc(C(=O)NCc2nc(C)cs2)cc1OC1CCN(C(C)C)CC1

Compound: CCN1CCN(c2cc(C)c3cc(NC(=O)c4cc(OC)cc(OC)c4)ccc3n2)CC1
AC50 [19]: 11.2 µM (active)
AC50 [20]: 17.1 µM (active)
